Here are results for 19 compounds from patent EP4567035A1, “NOVEL COMPOUND AS HYPOXIA-INDUCIBLE FACTOR 1(HIF-1) INHIBITOR OR VASCULAR ENDOTHELIAL GROWTH FACTOR (VEGF) INHIBITOR, AND PHARMACEUTICAL COMPOSITION COMPRISING SAME” (Nextgen Bioscience Co., Ltd., priority 2022, dated 2024).

The target of one assay is T1, HIF-1α (Homo sapiens, UniProt Q16665).
T1 construct: endogenous in cells; host or cells: ARPE-19 (ATCC CRL-2302)
As to the kind of experiment: Analysis of HIF-1α protein expression (Western blot) in ARPE-19 cells under mixed hypoxic condition. Particulars: concentration range at which HIF-1α expression is reduced by 50% vs untreated control. It counts as cell-based. As to the method: (§1) ARPE-19 cells (Human retinal pigment epithelial cells, ATCC CRL-2302) were cultured in DMEM/F12 (LM002-08, Welgene) medium containing 10% fetal bovine serum (FBS, 16000-044, Gibco) in an incubator at 37°C with 5% carbon dioxide. When the cells grew sufficiently, they were cultured in experimental culture dishes for protein isolation and medium supernatant acquisition.
(§2) Cells were detached from the culture dish using TrypLE™ Express (Gibco). After centrifugation at 1000 rpm for 3 minutes, the supernatant was removed. The cells were counted and seeded into new culture dishes. Normoxic conditions were maintained by culturing the cells in a 37°C incubator with 5% carbon dioxide, and hypoxic conditions were maintained by culturing the cells in a hypoxic incubator with 1% oxygen, 5% carbon dioxide, and 94% nitrogen gas.
In a disease of macular degeneration, hypoxia is a very important condition, and since the expression of downstream genes is regulated by HIF-1α, a transcription factor that is stabilized in hypoxic conditions, the following experiment was conducted to confirm this.
Mixed hypoxic condition was used for HIF-1α stability experiments, in which hypoxia was induced with 1% oxygen and the stability of HIF-1α was enhanced by treatment with cobalt chloride (CoCl2).
The compounds of each Example were diluted to 0.1 nM, 1 nM, 3 nM, 10 nM, 30 nM, 100 nM, 300 nM, 1 µM, and 10 µM in DMEM/F12 medium without fetal bovine serum, pretreated for 16 hours or 2 hours, and cultured for 1 hour or 24 hours in a mixed hypoxic condition. The cell medium was discarded, and protein lysates were obtained by rapidly treating with protein lysis buffer (RIPA Lysis and Extraction buffer, Thermo Fisher Scientific). LDS (4X Bolt ™ LDS Sample buffer) and reducing agent (10X Bolt ™ Sample Reducing Agent) were added together to the protein lysate, and heated at 70°C for 10 minutes. The lysate was separated by electrophoresis on a 4-12% Bis-Tris gel, transferred to a PVDF membrane, and blocked with 3% BSA (Albumin, Bovine, Fraction V, MPbio). The membrane was incubated overnight at 4°C with a mixture of anti-HIF-1α (ab179483, abcam) and anti-b-actin (MA515739, Invitrogen) antibodies at a ratio of 1:4000. The following day, the membrane was treated with a peroxidase-conjugated secondary antibody for 1 hour at room temperature, and the target protein was expressed using an ECL solution (Clarity ™ Western ECL substrate, Bio-rad) and quantified.
Based on the results of the expression level of HIF-1α in cells treated with compounds diluted from 10 µM to 0.1 nM, the concentration range of the compound at which the expression level of HIF-1α was reduced by 50% or less compared to the untreated control group was derived.

Another assay deals with VEGF. The experiment in a line: Evaluation of VEGF protein secretion level (Human VEGF ELISA) in ARPE-19 cell medium under hypoxic conditions. It counts as cell-based. As to the method: as §1, §2
The expression of the downstream gene, angiogenesis inducer VEGF, is regulated by HIF-1α, a major transcription factor under hypoxic conditions, and the level of secreted VEGF protein can be quantitatively confirmed through ELISA (Enzyme Linked Immunosorbent Assay, Human VEGF Quantikine ELISA Kit, R&D systems). For this purpose, the following experiment was conducted.
The compounds of each Example were diluted to 0.1 nM, 1 nM, 3 nM, 10 nM, 30 nM, 100 nM, 300 nM, 1 µM and 10 µM in DMEM/F12 medium containing 1% fetal bovine serum, pretreated for 2 hours, and cultured for 24 hours under hypoxic conditions to obtain the cell medium supernatant. The supernatant was centrifuged at 1000 rpm for 3 minutes, and a specific amount was treated with a VEGF ELISA assay kit and the absorbance value was measured at 450 nm to quantitatively confirm the level of VEGF protein (see Table 1 below).
Based on the results of secreted VEGF protein expression levels in cell media treated with compounds diluted at concentrations ranging from 10 µM to 0.1 nM, the concentration range of the compound at which the secreted VEGF protein level was reduced by 50% or less compared to the untreated control group was derived.

[1] abbreviates: values marked * in the table, mixed hypoxic condition (1% oxygen + CoCl2) for 24 hours, read-out: IC50 HIF-1α, Hypoxia(24h).
The mark [2] stands for this setting: ARPE-19 cells, pretreated 2 hours, 24 hours hypoxic conditions, secreted VEGF in medium supernatant by ELISA, concentration range reducing VEGF by 50% vs untreated control, read-out: IC50 VEGF.
The mark [3] stands for this setting: mixed hypoxic condition (1% oxygen + CoCl2) for 1 hour, read-out: IC50 HIF-1α Hypoxia (1 hour).
Where [4] appears, read: ARPE-19 cells, pretreated 2 hours, 24 hours hypoxic conditions, ELISA, read-out: concentration at which the secreted VEGF protein level was suppressed to less than 50%.
Where [5] appears, read: Experimental Example 2 (HIF-1α Western blot), read-out: concentration at which the expression level of VEGF was suppressed to less than 50%.

Read-outs that look alike come from different tables or passages of the source.

T1 sequence (Q16665 whole entry): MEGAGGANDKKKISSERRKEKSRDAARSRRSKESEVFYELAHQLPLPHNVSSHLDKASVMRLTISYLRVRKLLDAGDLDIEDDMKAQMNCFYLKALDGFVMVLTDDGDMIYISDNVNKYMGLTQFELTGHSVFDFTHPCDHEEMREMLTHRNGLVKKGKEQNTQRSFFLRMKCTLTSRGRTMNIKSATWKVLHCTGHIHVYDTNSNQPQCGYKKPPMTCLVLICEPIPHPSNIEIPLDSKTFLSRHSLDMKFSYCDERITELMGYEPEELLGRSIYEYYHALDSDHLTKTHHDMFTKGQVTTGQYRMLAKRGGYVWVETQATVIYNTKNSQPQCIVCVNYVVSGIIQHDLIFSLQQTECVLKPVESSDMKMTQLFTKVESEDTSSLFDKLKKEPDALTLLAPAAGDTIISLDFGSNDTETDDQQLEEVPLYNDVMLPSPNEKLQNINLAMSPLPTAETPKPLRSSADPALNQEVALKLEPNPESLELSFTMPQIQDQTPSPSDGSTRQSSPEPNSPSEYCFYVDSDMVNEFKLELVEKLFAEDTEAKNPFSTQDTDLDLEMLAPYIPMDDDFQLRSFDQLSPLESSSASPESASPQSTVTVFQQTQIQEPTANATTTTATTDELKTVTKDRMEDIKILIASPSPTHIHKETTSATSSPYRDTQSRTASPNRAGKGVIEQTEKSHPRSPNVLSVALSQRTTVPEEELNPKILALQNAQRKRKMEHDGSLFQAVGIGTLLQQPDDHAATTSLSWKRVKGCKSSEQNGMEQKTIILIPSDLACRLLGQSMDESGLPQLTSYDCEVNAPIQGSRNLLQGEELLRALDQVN

For `O=C(NCc1cc(F)cc(-c2cnn(-c3ccc(F)cc3)c2)c1)c1ncnc2nc(C3CCC(F)(F)C3)[nH]c12` (single isomer, unassigned) [84(E1), 8-(3,3-Difluorocyclopentyl)-N-(3-fluoro-5-(1-(4-fluorophenyl)-1H-pyrazol-4-yl)benzyl)-7H-purine-6-carboxamide], the DC50 at HIF-1α (setting [1]) is less than 100 nM. For the same compound, the IC50 in the assay on VEGF (setting [2]) was less than 100 nM.
`O=C(NCc1cc(F)cc(-c2cnn(-c3ccc(F)cc3)c2)c1)c1ncnc2nc(C3CC(F)C3)[nH]c12` (single isomer, unassigned) [102(A), N-(3-Fluoro-5-(1-(4-fluorophenyl)-1H-pyrazol-4-yl)benzyl)-8-(3-fluorocyclobutyl)-7H-purine-6-carboxamide]: the DC50 at HIF-1α (setting [1]) fell in the range of 1000 to 10000 nM. Also, the IC50 in the assay on VEGF (setting [2]) was greater than 10000 nM.
For `O=C(NCc1cc(F)cc(-c2cnn(-c3ccc(F)cc3)c2)c1)c1ncnc2nc(C3CC(F)C3)[nH]c12` (single isomer, unassigned) [102(B), N-(3-Fluoro-5-(1-(4-fluorophenyl)-1H-pyrazol-4-yl)benzyl)-8-(3-fluorocyclobutyl)-7H-purine-6-carboxamide] the same measures were 100 to 1000 nM and 100 to 1000 nM.
For `COC(=O)C1CC(c2nc3ncnc(C(=O)NCc4cc(F)cc(-c5cnn(-c6ccc(F)cc6)c5)c4)c3[nH]2)C1` (single isomer, unassigned) [103(A), Methyl 3-(6-((3-fluoro-5-(1-(4-fluorophenyl)-1H-pyrazol-4-yl)benzyl)carbamoyl)-7H-purin-8-yl)cyclobutanecarboxylate] the same measures were greater than 10000 nM and greater than 10000 nM.
In the case of `COC(=O)C1CC(c2nc3ncnc(C(=O)NCc4cc(F)cc(-c5cnn(-c6ccc(F)cc6)c5)c4)c3[nH]2)C1` (single isomer, unassigned) [103(B), Methyl 3-(6-((3-fluoro-5-(1-(4-fluorophenyl)-1H-pyrazol-4-yl)benzyl)carbamoyl)-7H-purin-8-yl)cyclobutanecarboxylate], the DC50 at HIF-1α (setting [1]) was greater than 10000 nM. In the assay with VEGF (setting [2]), the IC50 was greater than 10000 nM.
With `O=C(NCc1cc(F)cc(-c2cnn(-c3ccc(F)cc3)c2)c1)c1ncnc2nc(C3CCC(F)C3)[nH]c12` (single isomer, unassigned) [110(A), N-(3-Fluoro-5-(1-(4-fluorophenyl)-1H-pyrazol-4-yl)benzyl)-8-(3-fluorocyclopentyl)-7H-purine-6-carboxamide], on HIF-1α (setting [1]), the DC50 was less than 100 nM. For the same compound, in the assay on VEGF (setting [2]), the IC50 lay in the range of 100 to 1000 nM.
Take `O=C(NCc1cc(F)cc(-c2cnn(-c3ccc(F)cc3)c2)c1)c1ncnc2nc(C3CCC(F)C3)[nH]c12` (single isomer, unassigned) [110(B), N-(3-Fluoro-5-(1-(4-fluorophenyl)-1H-pyrazol-4-yl)benzyl)-8-(3-fluorocyclopentyl)-7H-purine-6-carboxamide]: the DC50 at HIF-1α (setting [1]) was less than 100 nM. In addition, the IC50 in the assay on VEGF (setting [2]) lay in the range of 100 to 1000 nM.
For `O=C(NCc1cc(F)cc(-c2cnn(C(F)(F)F)c2)c1)c1ncnc2nc(C3CCCC3)[nH]c12` [Example 1, 8-Cyclopentyl-N-(3-fluoro-5-(1-(trifluoromethyl)-1H-pyrazol-4-yl)benzyl)-7H-purine-6-carboxamide], the DC50 on HIF-1α (setting [3]) was less than 100 nM. Also, the IC50 in the assay with VEGF (setting [2]) was in the range of 100 to 1000 nM.
`O=C(NCc1cc(F)cc(-c2cnn(CC(F)F)c2)c1)c1ncnc2nc(C3CCCC3)[nH]c12` [Example 2, 8-Cyclopentyl-N-(3-(1-(2,2-difluoroethyl)-1H-pyrazol-4-yl)-5-fluorobenzyl)-7H-purine-6-carboxamide]: the DC50 on HIF-1α (setting [3]) was less than 100 nM. Also, the IC50 in the assay on VEGF (setting [2]) was in the range of 100 to 1000 nM.
For `O=C(NCc1cc(F)cc(-c2cnn(CC(F)(F)F)c2)c1)c1ncnc2nc(C3CCCC3)[nH]c12` [Example 3, 8-Cyclopentyl-N-(3-fluoro-5-(1-(2,2,2-trifluoroethyl)-1H-pyrazol-4-yl)benzyl)-7H-purine-6-carboxamide], the DC50 on HIF-1α (setting [3]) was less than 100 nM. The IC50 with VEGF (setting [2]) lay within 100 to 1000 nM.
Regarding `C[C@H](NC(=O)c1ncnc2nc(C3CCCC3)[nH]c12)c1cccc(-c2cnn(C)c2)c1` [Example 4, (S)-8-cyclopentyl-N-(1-(3-(1-methyl-1H-pyrazol-4-yl)phenyl)ethyl)-7H-purine-6-carboxamide], the DC50 at HIF-1α (setting [3]) fell in the range of 100 to 1000 nM. The IC50 in the assay with VEGF (setting [2]) was in the range of 1000 to 10000 nM.
For `Cn1cc(C(=O)Nc2cc(F)cc(CNC(=O)c3ncnc4nc(C5CCCC5)[nH]c34)c2)cn1` [Example 5, 8-Cyclopentyl-N-(3-fluoro-5-(1-methyl-1H-pyrazole-4-carboxamido)benzyl)-7H-purine-6-carboxamide], the DC50 at HIF-1α (setting [3]) lay in the range of 100 to 1000 nM. The IC50 in the assay on VEGF (setting [2]) was in the range of 1000 to 10000 nM.
As to `O=C(NCc1cc(F)cc(-c2cnn(-c3ccccc3)c2)c1)c1ncnc2nc(C3CCCC3)[nH]c12` [Example 7, 8-Cyclopentyl-N-(3-fluoro-5-(1-phenyl-1H-pyrazol-4-yl)benzyl)-7H-purine-6-carboxamide], the DC50 at HIF-1α (setting [3]) was less than 100 nM. The IC50 in the assay with VEGF (setting [2]) lay within 100 to 1000 nM.
On to `Cn1cc(Nc2cc(F)cc(CNC(=O)c3ncnc4nc(C5CCCC5)[nH]c34)c2)cn1` [Example 8, 8-Cyclopentyl-N-(3-fluoro-5-((1-methyl-1H-pyrazol-4-yl)amino)benzyl)-7H-purine-6-carboxamide], for which the DC50 at HIF-1α (setting [3]) is less than 100 nM. In addition, in the assay on VEGF (setting [2]), the IC50 was in the range of 100 to 1000 nM.
`O=C(NCc1cc(F)cc(-c2cnn(Cc3ccccc3)c2)c1)c1ncnc2nc(C3CCCC3)[nH]c12` [Example 9, N-(3-(1-benzyl-1H-pyrazol-4-yl)-5-fluorobenzyl)-8-cyclopentyl-7H-purine-6-carboxamide]: at HIF-1α (setting [3]), the DC50 was less than 100 nM. Moreover, in the assay on VEGF (setting [2]), the IC50 was 100 to 1000 nM.
Consider `O=C(NCc1cc(F)cc(Nc2cccnc2)c1)c1ncnc2nc(C3CCCC3)[nH]c12` [Example 10, 8-Cyclopentyl-N-(3-fluoro-5-(pyridin-3-ylamino)benzyl)-7H-purine-6-carboxamide], for which the DC50 at HIF-1α (setting [3]) is less than 100 nM. The IC50 in the assay with VEGF (setting [2]) fell in the range of 100 to 1000 nM.
For `O=C(NCc1cc(F)cc(-c2cn[nH]c2)c1)c1ncnc2nc(C3CCCC3)[nH]c12` [Example 11, 8-Cyclopentyl-N-(3-fluoro-5-(1H-pyrazol-4-yl)benzyl)-7H-purine-6-carboxamide], the DC50 on HIF-1α (setting [3]) was less than 100 nM. The IC50 in the assay with VEGF (setting [4]), in the assay on VEGF (setting [2]) and with VEGF (setting [5]) was less than 100 nM in each case.
`O=C(NCc1cc(F)cc(-c2cnn(-c3ccncc3)c2)c1)c1ncnc2nc(C3CCCC3)[nH]c12` [Example 12, 8-Cyclopentyl-N-(3-fluoro-5-(1-(pyridin-4-yl)-1H-pyrazol-4-yl)benzyl)-7H-purine-6-carboxamide]: the DC50 on HIF-1α (setting [3]) was less than 100 nM. The IC50 in the assay with VEGF (setting [4]), with VEGF (setting [2]) and in the assay on VEGF (setting [5]) was less than 100 nM in each case.
For `O=C(NCc1cc(F)cc(-c2cnn(-c3ccc(F)cc3)c2)c1)c1ncnc2nc(C3CCC(F)(F)C3)[nH]c12` (stereo not drawn) [Example 84, 8-(3,3-Difluorocyclopentyl)-N-(3-fluoro-5-(1-(4-fluorophenyl)-1H-pyrazol-4-yl)benzyl)-7H-purine-6-carboxamide], the IC50 with VEGF (setting [4]) and with VEGF (setting [5]) was less than 100 nM in each case.
